Measured values: US12390467B2, “Necroptosis inducers or autophagy inhibitors or a combination thereof” (The University of Toledo, priority 2018, dated 2025)

Key:
Assay type in all cases: cell-based
[1] = test system: Bak, Bax, Bcl-2, caspases, PARP, cytochrome c in BT-20 cells; test: Western blot, apoptotic proteins
Method: The TNBC cells were seeded in a culture flask and incubated for 24 h. The cells were then incubated with different concentrations of the lead compounds and re-incubated for an additional 12 or 24 h. […] The bicinchoninic acid (BCA) was used to determine protein concentration in the cell extracts (G-BIOSCIENCES, St. Louis, MO, USA). […] The membrane was blocked using 5% milk in Tris-buffered Tween 20 saline for 30 minutes. The membrane was then incubated overnight with primary antibodies against Bak, Bax, Bcl-2, caspase9, caspase 3, caspase 7, PARP, cytochrome c, N-cadherin, E-cadherin, c-Myc, dishevelled segment polarity protein 3 (DVL3), dishevelled segment polarity protein 2 (DVL2), Vimentin, mitogen-activated protein kinase kinase (MAPKK also known as MEK1/2), β-catenin, low-density lipoprotein receptor-related protein 6 (LRP6), receptor-interacting protein kinase (RIP), phosphorylated RIP (p-RIP), mixed lineage kinase domain like pseudokinase(MLKL), Caspase 8, light chain 3 (LC3), lysosomal-associated membrane protein 1 (LAMP1), unc-51 like autophagy activating kinase 1 (ULK1), ras associated protein 7 (Rab7), ras associated protein 5 (Rab5), Beclin 1, mechanistic target of rapamycin (mTOR), tumor necrosis factor alpha (TNF-α), tumor necrosis factor receptor 1 (TNFR1), tumor necrosis factor receptor 2 (TNFR2), Fas-associated protein with death domain (FADD), Fas ligand (Fas), TNF-related apoptosis-inducing ligand (TRAIL), death receptor 5 (DR5), Tumor necrosis factor receptor type 1-associated DEATH domain (TRADD), receptor-interacting protein kinase 3 (RIP3), β-actin or GAPDH in 1:1000 dilution in 5% milk or 5% BSA at 4° C. Horseradish peroxidase-labeled (HRP) anti-rabbit or anti-mouse secondary antibodies (1:5,000 dilution) were added and incubated the next day for an additional 1 h. A ChemiDoc™ MP System imaging system from Bio-Rad (Hercules, CA, USA) was used for blots reading. Blots were used to obtain the protein bands, followed by quantification of the bands using image J software (NIH, Bethesda, MD, USA). All of the data were expressed as the ratio of β-actin or GAPDH.

[2] = test system: lung (H460), ovarian (OV2008), prostate (DU145), and colon (HCT-116, LOVO, S1); test: MTT cytotoxicity screening, other cancer types; conditions: H460, OV2008, DU145, HCT-116, LOVO, less potently than in TNBC
Method: (§1) The following cancer and non-cancer cell lines were used in the initial cytotoxicity screening of the TPH104 compounds: triple negative breast cancer (TNBC): MDA-MB468, MDA-MB 231, and BT-20; non-TNBC: MCF-7 and ZR-75-1; ovarian: Ov2008; prostate: DU145; colon: HCT-116, S1, and LOVO; lung: H460; normal kidney: HEK-293; normal breast: HMEC; and normal colon: CRL-1459. All cells were cultured in Dulbecco's modified Eagle medium (DMEM), supplemented with 10% fetal bovine serum (FBS), and 1% penicillin/streptomycin (P/S). Cells were allowed to grow as adherent monolayers in T25 flasks in a humidified incubator with 5% CO2 at 37° C. for a period of 24 h, unless otherwise specified for certain experiments.
(§2) The MTT assay was used to determine the cytotoxicity of all of the compounds. […] Subsequently, the plate was shaken for 2 minutes and the absorbance was measured at a wavelength of 570 nm using a SpectraMax iD3 Multi-Mode Microplate Reader (Molecular Devices, Sunnyvale, CA). The IC50 values of each compound were calculated and used to determine the selectivity ratio (IC50 in normal cells/IC50 in cancer cells) of each compound as previously described. […]
Table 3 (FIG. 30)-Cytotoxicity screening of TPH104 compounds against Colon (HCT-116, LOVO and S1), Prostate (DU145), Ovarian (Ov 2008), and Lung (H460) cancer cell lines. Cell survival was determined using MTT assay as described. […]

BT-20 cells = test: Acridine orange assay; conditions: TPH104, 12 h, vs vehicle
Method: The cell-permeant, nucleic acid binding dye, acridine orange (AO) was used to assess the effect of TPH104 on the activation of lysosomes. A 10 μg/ml stock solution was prepared using PBS. The TNBC cells were seeded in a 6-well plate as described in the cell cycle assay. After overnight incubation, cells were incubated with TPH104 (1, 2, 5 μM), vehicle or 20 uM of chloroquine (CQ, […]) for 12 h. The media was removed via suction and 1 ml of AO, diluted in 1:1000 in PBS, was added to each well and the plate was incubated for an additional 30 minutes. Cells were washed three times in PBS to remove excess dye. The cells from each well were captured from randomly selected fields using a fluorescent microscope (EVOS-FLC cell imaging system, Thermofisher scientific) at 40× to determine the AO fluorescence intensity which is positively correlated to lysosomal activation.

[3] = test system: other normal cell lines (colon and kidney); test: MTT cytotoxicity, other normal cell lines
Method: as §1
as §2, with “compounds. Briefly, in a 96-well flat-bottom cell culture plate, the cells were seeded at a density between 3-5×10^3 cells/well (180 μl in each well) and incubated for 24 h (a hemocytometer was used for cell counting).” for “compounds.”

COc1ccc(O)c(/C=N/Nc2ncnc3scc(-c4ccc(C)cc4)c23)c1 [TPH104]
expression levels of caspase 3 and cleaved caspase 3 ([1]; 2 μM or 5 μM): significantly decreased | expression levels of caspase 7 and caspase 9 ([1]; 0.5, 1, 2, and 5 μM): did not significantly alter | expression of Bcl2 ([1]; 0.5, 1, 2, and 5 μM): increased | expression of Bak ([1]; 0.5, 1, 2, and 5 μM, BT-20 and MDA-MB468): not significantly altered | PARP cleavage ([1]; 1, 2, and 5 μM): significantly cleaved | expression of cytochrome c ([1]; 1, 2, and 5 μM): significantly decreased | expression of Bax ([1]; 1, 2, and 5 μM, BT-20 and MDA-MB468): significantly decreased | proliferation of other types of cancer [2]: significantly inhibited | fluorescence intensity of the acridine orange (AO) dye (BT-20 cells): did not show a significant increase | selectivity fold in comparison to other normal cell lines (colon and kidney) [3]: up to 30 fold
